Source: patent US11702417B2, “Compounds for improving mRNA splicing” (The General Hospital Corporation, priority 2015, dated 2023)

What was measured:
[1] = tested on: IKBKAP splicing (exon 20 inclusion) in FD fibroblasts GM04663; test: Secondary assay: IKBKAP splicing analysis by RT-PCR in FD fibroblasts GM04663; format: cell-based; conditions: Homo sapiens, FD fibroblasts GM04663, 24 hours of treatment, read-out: % exon Inclusion Normalized
[2] = tested on: FD (familial dysautomonia) IKBKAP minigene, exon 20 inclusion, in HEK293T cells; test: Primary splicing assay (FD IKBKAP minigene, Firefly/Renilla luciferase reporter in HEK293T); format: cell-based, human; conditions: Homo sapiens, HEK-293T, Firefly/Renilla ratio, 24 hours of treatment; for EC (maximum kinetin efficacy): HEK293T, read-out: ECk (compound concentration at which the maximum kinetin efficacy (200 μM) is reached); for Emax: max efficacy in Primary Assay, kinetin and DMSO as positive and negative controls, read-out: Emax (%)
[3] = In vivo FD mouse model: presence of compound in plasma and brain; conditions: oral gavage eight days, 1 hour after last dose
Method: (§1) Compound (100) was administered by oral gavage for eight days at 60 mg/kg/day, 30 mg/kg/day and 10 mg/kg/day to the mouse transgenic familial dysautonomia (FD) model. Every dosing group and the control group (vehicle) consisted of 6 mice. The mice were given food and water ad libitum, and changes in body weights were monitored on a daily basis. On the eighth day the mice were dosed for the last time and after 1 hour the mice were sacrificed and dissected. Plasma, liver, kidney, heart and brain were collected.

IKBKAP exon 20 inclusion = test: In vivo familial dysautonomia mouse model: splicing analysis in tissues; conditions: for inclusion of exon 20 in C57BI6-FD mouse tissues (FIGS. 1A-6): 10, 30 and 60 mg/kg/day, 8 days
Method: as §1, with “Compound (100) was administered by oral gavage for eight days at 60 mg/kg/day, 30 mg/kg/day and 10 mg/kg/day to the mouse transgenic familial dysautonomia (FD) model.” left out
The following solutions were prepared daily: Compound (230) in 10% DMA/45% PEG 300/12% EtOH/33% sterile water; and Compound (270) in 10% DMA/45% PEG 300/12% EtOH/33% sterile water.
[…] Six transgenic mice were fed daily with 10% DMA/45% PEG 300/12% EtOH/33% sterile water solution for the same duration. The mice were given food and water ad libitum, and changes in body weights were monitored on a daily basis. On the eighth day the mice were dosed for the last time and after 1 hour were sacrificed and dissected. Plasma, lungs, muscle, liver, heart, brain, kidney, sciatic nerve, and trigeminal nerve were collected. Splicing was evaluating by RT-PCT and IKAP protein was evaluated using Western Blotting.

IKAP protein = test: In vivo FD mouse model: IKAP protein in liver by western blot; conditions: 400 mg/kg/day
Method: Six transgenic mice were fed daily with 10% DMA/45% PEG 300/12% EtOH/33% sterile water solution for the same duration. The mice were given food and water ad libitum, and changes in body weights were monitored on a daily basis. On the eighth day the mice were dosed for the last time and after 1 hour were sacrificed and dissected. Plasma, lungs, muscle, liver, heart, brain, kidney, sciatic nerve, and trigeminal nerve were collected. Splicing was evaluating by RT-PCT and IKAP protein was evaluated using Western Blotting. Protein extracts were obtained by homogenizing liver or cell pellets in RIPA buffer (Tris-HCl 50 mM, pH 7.4; NaCl 150 mM; NP-40 1%; Sodium deoxycholate 0.5%; SDS 0.1%) containing protease inhibitor cocktail (Sigma), DTT (100 μM) and PMSF (100 μM). Insoluble debris were discarded after centrifugation and protein concentration was determined using Pierce® […] BCA Protein Assay Kit (Thermo Scientific). 50 μg of protein was separated on NuPage 4-12% Bis-Tris Gel (Invitrogen) and transferred into nitrocellulose membrane (Thermo Scientific). […]

[4] = tested on: normal IKBKAP mRNA in peripheral blood; conditions: human patients and carriers of familial dysautonomia, preliminary testing; cited from earlier work
IKBKAP splicing = conditions: mice, oral, 400 mg/kg/day for 7 days; cited from earlier work

## Clc1nc(NCc2ccncc2)c2cc[nH]c2n1 [(100)]
[1]
  activation at 0.08 µM: 22.6%
  activation at 0.8 µM: 62.1%
[2]
  EC (maximum kinetin efficacy): 2.18 µM
  Emax: 235%
[3]
  presence of compound in brain: evident in the brain
  presence of compound in plasma: presence of (100) in the plasma

## COc1nc2c(NCc3nccs3)nc(Cl)nc2[nH]1 [(230)]
IKBKAP exon 20 inclusion
  inclusion of exon 20 in C57BI6-FD mouse tissues (FIGS. 1A-6): useful for improving inclusion of exon 20
[1]
  activation at 0.08 µM: 22.3%
  activation at 0.8 µM: 70%
[2]
  EC (maximum kinetin efficacy): 1.5 µM
  Emax: 216%

## FC(F)(F)COc1nc2c(NCc3ccco3)nc(Cl)nc2[nH]1 [(270)]
IKBKAP exon 20 inclusion
  inclusion of exon 20 in C57BI6-FD mouse tissues (FIGS. 1A-6): useful for improving inclusion of exon 20
[1]
  activation at 0.08 µM: 28.7%
  activation at 0.8 µM: 101%
[2]
  EC (maximum kinetin efficacy): 0.59 µM
  Emax: 218%

## Clc1nc(NCc2cscn2)c2cc[nH]c2n1 [(372)]
[1]
  activation at 0.08 µM: 13.4%
  activation at 0.8 µM: 48.7%
[2]
  EC (maximum kinetin efficacy): 3.71 µM
  Emax: 126%

## FCCn1ncc2c(NCc3ccco3)nc(Cl)nc21 [Example 12, 6-Chloro-1-(2-fluoroethyl)-N-(furan-2-ylmethyl)-1H-pyrazolo[3,4-d]pyrimidin-4-amine]
other
  melting point: 125 to 128 °C

## c1coc(CNc2ncnc3nc[nH]c23)c1 [kinetin, N^6-furfuryladenine, reference compound]
IKAP protein
  level of the IKAP protein in liver: no significant changes
IKBKAP exon 20 inclusion; 400 mg/kg/day
  splicing in kidney: no significant changes in splicing
IKBKAP exon 20 inclusion; 400 mg/kg/day, 8 days of treatment
  splicing in brain: no significant change
[1]; 200 μM (kinetin control)
  activation at 200 µM: 100%
[4]
  normal IKBKAP mRNA in peripheral blood: increased normal IKBKAP mRNA in peripheral blood
IKBKAP splicing
  IKBKAP splicing in vivo in certain tissues, including the brain: improve IKBKAP splicing in vivo
